Results from patent US20110281928A1, “Process for the preparation of zofenopril and its pharmaceutically acceptable salts thereof” (GLENMARK GENERICS LTD, priority 2009, published 2011).
Structures can show the parent of a compound that is named as a salt.

Key:
Format in all cases: physicochemical
[1] = Particle size distribution by laser diffraction
Description: The D10, D50, and D90 values are useful ways for indicating a particle size distribution. D90 is a size value where at least 90 percent of the particles have a size smaller than the stated value. Likewise D10 refers to 10 percent of the particles having a size smaller than the stated value. D50 refers to at least 50 percent of the particles having a size smaller than the stated value and D [4,3] value refers to a mean particle size. Methods for determining D10, D50, D90 and D [4,3] include those using laser light diffraction with equipment sold by Malvern Instruments ltd.
As used herein, “crystalline particles” means any combination of single crystals, aggregates and agglomerates. As used herein “Particle Size Distribution (P.S.D.)” means the cumulative volume size distribution of equivalent spherical diameters as determined by laser diffraction at 1 bar dispersive pressure in a SympatecHelos equipment. “Mean particle size distribution, i.e., d (0.5)” correspondingly, means the median of said particle size distribution.

[2] = Bulk and tapped density; settings: Example 5 product
[3] = Solubility in organic solvents (statement)
[4] = Specific surface area by B.E.T. nitrogen absorption
Description: Specific surface area is defined in units of square meters per gram (m^2/g). It is usually measured by nitrogen absorption analysis. In this analysis, nitrogen is absorbed on the surface of the substance. The amount of the absorbed nitrogen (as measured during the absorption or the subsequent desorption process) is related to the surface area via a formula known as the B. ET. formula. BET Surface Area Analyser Model SAA-2000, specifically designed for BET_Surface Area Analysis.
The Specific Surface Area is expressed in meters square per gram of a sample. It is a measure of area covered by Nitrogen gas adsorbed in a mono-layer form.

With `C[C@H](CSC(=O)c1ccccc1)C(=O)N1C[C@@H](Sc2ccccc2)C[C@H]1C(=O)O` [zofenopril calcium, (4S)-N-[3-(Benzoylsulfanyl)-2(S)-methylpropionyl]-4-(phenylsulfanyl)-L-proline calcium salt] the “Particle size distribution d 10” value ([1]; Example 5 product) was 3.902 μ, the “Particle size distribution d 50” value ([1]; Example 5 product) was 12.088 μ and the “Particle size distribution d90” value ([1]; Example 5 product) was 33.858 μ. For the same compound, the “Mean particle size distribution d (0.5)” value ([1]; crystal particles, description) was 12.088 μm, the “Particle size distribution d (0.1)” value ([1]; crystal particles, description) was 3.902 μm and the “Particle size distribution d (0.9)” value ([1]; crystal particles, description) was 33.858 μm. For the same compound, the “Bulk density (Tapped)” value [2] was 0.282 gm/ml, the “Bulk density (untapped)” value [2] was 0.201 gm/ml and the “Solubility in organic solvents” value [3] was “insoluble”. The “Specific surface area by B.E.T” value ([4]; Example 5 product) was 14.13 m^2/g and the “Specific surface area, as measured by B.E.T.” value ([4]; crystal particles, description) was “about 14.13 m^2/gm”.
